In US20250051263A1, “NOVEL IONIZABLE LIPIDS AND LIPID NANOPARTICLES AND METHODS OF USING THE SAME” (Sail Biomedicines, Inc., priority 2021, published 2025):

How the values were obtained:
Balb/c mice = test: In-vivo bioluminescent imaging after IV injection of Fluc mRNA LNP; settings: Example 5 LNP (DOPE 35:16:46.5:2.5), IV, 5 μg FLUC + 5 μg EPO; for Bioluminescence (IV) Liver / Bioluminescence (IV) Lung / Bioluminescence (IV) Spleen / Bioluminescence (IV) Whole Body: 4-6 hours post-dose; for Spleen: Liver Ratio: ratio of bioluminescence
Experimental: 8-9 week old female Balb/c mice are utilized for bioluminescence-based ionizable lipid screening efforts. Mice are obtained from Jackson Laboratories (JAX Stock: 000651) and allowed to acclimate for one week prior to manipulations. Animals are placed under a heat lamp for a few minutes before introducing them to a restraining chamber. The tail is wiped with alcohol pads (Fisher Scientific) and 100 μL of a lipid nanoparticle composition descrbed above containing 10 ug total mRNA (5 ug Fluc+5 ug EPO) is injected intravenously using a 29 G insulin syringe (Covidien). Any resulting bleeding is stemmed using a sterile gauze pad (Fisher Scientific) and animals are placed back into their home cage. 4-6 hours post-dose, animals are injected with 200 μL of 15 mg/mL D-Luciferin (GoldBio) and placed in an isoflurane induction chamber set to deliver 2.5% isoflurane delivered at an oxygen flow rate of 1-2 liters per min. After 5 minutes of isoflurane exposure, mice are placed in set nose cones inside the IVIS Lumina LT imager (PerkinElmer). LivingImage software is utilized for imaging. Whole body bio-luminescence is captured at auto-exposure after which animals are removed from the IVIS and placed into a CO2 chamber for euthanasia. Cardiac puncture is performed on each animal after placing it in dorsal recumbency, and blood collection is performed using a 25 G insulin syringe (BD). Blood is collected in Lithium-Heparin coated tubes (Fisher Scientific) and immediately placed on ice. Once all blood samples are collected, tubes are spun at 2000 G for 10 minutes using a tabletop centrifuge and plasma is aliquoted into individual Eppendorf tubes (Fisher Scientific) and stored at −80 C for subsequent EPO quantification. EPO levels in plasma are determined using EPO MSD kit (Meso Scale Diagnostics).
8-9 week old female Balb/c mice were utilized for bioluminescence-based ionizable lipid screening efforts. Mice were obtained from Jackson Laboratories (JAX Stock: 000651) and allowed to acclimate for one week prior to manipulations. Animals were placed under a heat lamp for a few minutes before introducing them to a restraining chamber. The tail was wiped with alcohol pads (Fisher Scientific) and, for each LNP composition descrbed above, 100 μL of a lipid nanoparticle composition descrbed above containing 10 μg total mRNA (5 μg Fluc+5 μg EPO, 5 μg Fluc+5 μg Cre, or 5 μg EGFP) was injected intravenously using a 29 G insulin syringe (Covidien).
4-6 hours post-dose, animals were injected with 200 μL of 15 mg/mL D-Luciferin (GoldBio), and placed in set nose cones inside the IVIS Lumina LT imager (PerkinElmer). LivingImage software was utilized for imaging. Whole body bio-luminescence was captured at auto-exposure after which animals are removed from the IVIS and placed into a CO2 chamber for euthanasia. Cardiac puncture was performed on each animal after placing it in dorsal recumbency, and blood collection was performed using a 25 G insulin syringe (BD). Once all blood samples were collected, tubes are spun at 2000 G for 10 minutes using a tabletop centrifuge and plasma was aliquoted into individual Eppendorf tubes (Fisher Scientific) and stored at −80° C. for subsequent EPO quantification. EPO levels in plasma were determined using EPO MSD kit (Meso Scale Diagnostics).

[1] = mRNA encapsulation efficiency, Quant-iT RiboGreen RNA Assay; assay type: physicochemical; settings: Example 5 LNP lipid:DOPE:Plant Cholesterol:DMPE-PEG2k 35:16:46.5:2.5, FLUC/EPO 1:1 mRNA, N:P 6:1
Excerpt: All other compositions (i.e., compositions of MC3 (a commercially available ionizable lipid having a chemical name of (6Z,9Z,28Z,31Z)-heptatriacont-6,9,28,31-tetraene-19-yl 4-(dimethylamino)butanoate, and compositions of novel ionizable lipids 7669, 7671, 7668, 767, 7650) are composed of ionizable lipid:structural lipid:sterol:PEG-lipid (SDA lipid #:DSPC:cholesterol:14:0 PEG2000 PE) at a molar ratio of […], respectively. Lipids are solubilized in ethanol. Compositions are then handled as above, except the formulations are maintained at ionizable lipid to mRNA N:P ratio of 6:1. The lipid mix and mRNA solution are mixed at a 1:3 ratio by volume, respectively, on a NanoAssemblr Ignite (Precision Nanosystems) at a total flow rate of 9 mL/min. Resulting compositions are then loaded into Slide-A-Lyzer G2 dialysis cassettes (10 k MWCO) and dialyzed in 200 times sample volume of 1×PBS for 4 hrs at room temp with gentle stirring. The PBS is refreshed, and the compositions are further dialyzed for at least 14 hrs at 4° C. with gentle stirring. The dialyzed compositions are then collected and concentrated by centrifugation at 2000×g using Amicon Ultra centrifugation filters (100 k MWCO). Concentrated particles are characterized for size, polydispersity, and particle concentration using Zetasizer Ultra (Malvern Panalytical) and for mRNA encapsulation efficiency using Quant-iT RiboGreen RNA Assay Kit (ThermoFisher Scientific).
The lipid mix and mRNA solution were mixed at a 1:3 ratio by volume, respectively, on the NanoAssemblr Ignite (Precision Nanosystems) at a total flow rate of 9 mL/min. Resulting formulations were then loaded into Slide-A-Lyzer G2 dialysis cassettes (10 k MWCO) and dialyzed in 200 times sample volume of 1×PBS for 2 hrs at room temperature. The PBS was refreshed, and the formulations were further dialyzed for at least 14 hrs at 4° C. with gentle stirring. The dialyzed formulations were then collected and concentrated by centrifugation at 3000×g using Amicon Ultra centrifugation filters (100 k MWCO). The concentrated formulations were characterized for size, polydispersity, and particle concentration using Zetasizer Ultra (Malvern Panalytical) and for mRNA encapsulation efficiency using Quant-iT RiboGreen RNA Assay Kit (ThermoFisher Scientific).
For each LNP composition, the lipid mix and mRNA solution were mixed at a 1:3 ratio by volume, respectively, on a NanoAssemblr Ignite (Precision Nanosystems) at a total flow rate of 9 mL/min. The resulting compositions were then loaded into Slide-A-Lyzer G2 dialysis cassettes (10 k MWCO) and dialyzed in 200 times sample volume of 1×PBS for 2 hours at room temperature with gentle stirring. The PBS was refreshed, and the compositions were further dialyzed for at least 14 hours at 4° C. with gentle stirring. The dialyzed compositions were then collected and concentrated by centrifugation at 3000×g using Amicon Ultra centrifugation filters (100 k MWCO). The concentrated particles were characterized for size, polydispersity, and particle concentration using Zetasizer Ultra (Malvern Panalytical) and for mRNA encapsulation efficiency using Quant-iT RiboGreen RNA Assay Kit (ThermoFisher Scientific).

Compound	Bioluminescence (IV) Liver (Balb/c mice)	Bioluminescence (IV) Lung (Balb/c mice)	Bioluminescence (IV) Spleen (Balb/c mice)	Bioluminescence (IV) Whole Body (Balb/c mice)	Spleen: Liver Ratio (Balb/c mice)	% EE [1] [%]
CCCCCCCCCOC(=O)CCCCCCCN(CCCCCCCC(=O)OC(CCCCCCCC)CCCCCCCC)CCNC(=O)CCC(=O)NCCN(CCCCCCCC(=O)OCCCCCCCCC)CCCCCCCC(=O)OC(CCCCCCCC)CCCCCCCC [Compound 2213, nonyl 8-[2-[[4-[2-[(8-nonoxy-8-oxo-octyl)-[8-(1-octylnonoxy)-8-oxo-octyl]amino]ethylamino]-4-oxo-butanoyl]amino]ethyl-[8-(1-octylnonoxy)-8-oxo-octyl]amino]octanoate]	2.2E+06	3.7E+03	3.5E+05	1.0E+07	0.215	92.5
CCCCCCCCCCCOC(=O)CCCCCN(CCCCCCCC(=O)OC(CCCCCCCC)CCCCCCCC)CCN1CCN(CCN(CCCCCCCC(=O)OC(CCCCCCCC)CCCCCCCC)CCCCCC(=O)OCCCCCCCCCCC)CC1 [Compound 2248, 1-octylnonyl 8-[2-[4-[2-[[8-(1-octylnonoxy)-8-oxo-octyl]-(6-oxo-6-undecoxy-hexyl)amino]ethyl]piperazin-1-yl]ethyl-(6-oxo-6-undecoxy-hexyl)amino]octanoate]	5.6E+07	2.7E+04	4.5E+05	3.5E+08	0.008	95.0
CCCCCCCCC(CCCCCCCC)OC(=O)CCCCCCCN(CCCCCCCC(=O)OC(CCCCCCCC)CCCCCCCC)CCNC(=O)CCC(=O)NCCN(CCCCCCCC(=O)OC(CCCCCCCC)CCCCCCCC)CCCCCCCC(=O)OC(CCCCCCCC)CCCCCCCC [Compound 2275, 1-octylnonyl 8-[2-[[4-[2-[bis[8-(1-octylnonoxy)-8-oxo-octyl]amino]ethylamino]-4-oxo-butanoyl]amino]ethyl-[8-(1-octylnonoxy)-8-oxo-octyl]amino] octanoate]	6.8E+07	1.6E+04	2.3E+05	4.8E+08	0.003	94.7
CCCCCCCCCCCNC(=O)CCCCCN(CCCCCCCC(=O)NC(CCCCCCCC)CCCCCCCC)CCNC(=O)CCC(=O)NCCN(CCCCCCCC(=O)NC(CCCCCCCC)CCCCCCCC)CCCCCC(=O)NCCCCCCCCCCC [Compound 2282, N,N′-bis[2-[[8-(1-octylnonylamino)-8-oxo-octyl]-[6-oxo-6-(undecylamino)hexyl]amino]ethyl]butanediamide]	5.7E+07	3.8E+04	5.4E+06	7.7E+08	0.092	94.7
CCCCCCCCC(CCCCCCCC)OC(=O)CCCCCCCN(CCCCCCCC(=O)OC(CCCCCCCC)CCCCCCCC)CCNC(=O)CCCC(=O)NCCN(CCCCCCCC(=O)OC(CCCCCCCC)CCCCCCCC)CCCCCCCC(=O)OC(CCCCCCCC)CCCCCCCC [Compound 2320, 1-octylnonyl 8-[2-[[5-[2-[bis[8-(1-octylnonoxy)-8-oxo-octyl]amino]ethylamino]-5-oxo-pentanoyl]amino]ethyl-[8-(1-octylnonoxy)-8-oxo-octyl]amino]octanoate]	8.1E+07	4.0E+03	4.4E+05	9.5E+08	0.007	93.4
CCCCCC(CCCCC)CCCOC(=O)CCCCCCCN(CCCCCCCC(=O)OCCCC(CCCCC)CCCCC)CCNC(=O)CCC(=O)NCCN(CCCCCCCC(=O)OCCCC(CCCCC)CCCCC)CCCCCCCC(=O)OCCCC(CCCCC)CCCCC [Compound 2332, bis(4-pentyl-nonyl)13,16-dioxo-9,20-bis(8-oxo-8-((4-pentylnon-yl)oxy)octyl)-9,12,17,20-tetraazaocta-cosanedioate]	2.8E+07	–	3.5E+05	9.8E+07	0.045	98.0
CCCCCCCCCC(C)COC(=O)CCCCCN(CCCCCCCC(=O)OC(CCCCCCCC)CCCCCCCC)CCNC(=O)CCC(=O)NCCN(CCCCCCCC(=O)OC(CCCCCCCC)CCCCCCCC)CCCCCC(=O)OCC(C)CCCCCCCCC (centres unmarked) [Compound 2355, 1-octylnonyl 8-[[6-(2-methylundecoxy)-6-oxo-hexyl]-[2-[[4-[2-[[6-(2-methylundecoxy)-6-oxo-hexyl]-[8-(1-octylnonoxy)-8-oxo-octyl]amino]ethylamino]-4-oxo-butanoyl]amino]ethyl]amino]octanoate]	1.8E+07	5.9E+03	4.6E+05	1.4E+08	0.026	94.9
CCCCCCCCCCC(CC)OC(=O)CCCCCN(CCCCCCCC(=O)OC(CCCCCCCC)CCCCCCCC)CCNC(=O)/C=C/C(=O)NCCN(CCCCCCCC(=O)OC(CCCCCCCC)CCCCCCCC)CCCCCC(=O)OC(CC)CCCCCCCCCC (centres unmarked) [Compound 2378, 1-octylnonyl 8-[[6-(1-ethylundecoxy)-6-oxo-hexyl]-[2-[[(E)-4-[2-[[6-(1-ethylundecoxy)-6-oxo-hexyl]-[8-(1-octylnonoxy)-8-oxo-octyl]amino]ethylamino]-4-oxo-but-2-enoyl]amino]ethyl]amino]octanoate]	1.6E+07	7.6E+03	2.2E+05	1.8E+08	0.007	93.0
